In data set [1] the test system is human lymphoblastoid TK6 cells. In words: In vitro TK6 micronucleus assay. The note with it: for Conclusion TK6 MNT screen result: 30+0 hour -S-9 up to limit of cytotoxicity, 3+27 hours +S-9 up to 1 mM. It counts as cell-based. Here is the method: An in vitro TK6 Micronucleus Assay was performed to evaluate the clastogenic and aneugenic potential of a LATS inhibitor by its effects on the frequency of micronuclei in cultured human lymphoblastoid TK6 cells treated for 30 hours with no recovery in the absence of an Aroclor-induced rat liver metabolizing system (S-9) (30+0 hour -S-9) and for 3 hours in the presence of S-9 with 27 hours of recovery (3+27 hours +S-9).
TK6 cells were cultured in HEPES-buffered RPMI 1640 medium with GlutaMAXTM-1 including 10% (v/v) heat inactivated foetal calf serum, 100 Units/mL/100 µg/mL penicillin / streptomycin. Liver S-9 mix from male rats induced with Aroclor 1254 was added as a 10% S-9 mix to achieve a final concentration of 1% in the test system. […] Standard vehicle used was DMSO.
For valid data, the test item was considered to induce clastogenic and/or aneugenic events if: • A statistically significant increase in the frequency of micronucleated mononucleate (MNMON) cells at one or more concentrations was observed • An incidence of MNMON cells at such a concentration exceeded the normal range in both replicate cultures was observed • A concentration-related increase in the proportion of MNMON cells was observed (positive trend test).
The test item was considered positive in this assay if all of the above criteria were met. The test item was considered negative in this assay if none of the above criteria were met.

Data set [2] deals with Salmonella typhimurium (TA98 and TA100). In words: Bacterial reverse mutation assay (6-well Ames screen). The format is cell-based. The settings on record: TA98 and TA100, absence or presence of rat liver S-9 mix, maximum concentration 500 µg/well. Here is the method: A Bacterial Reverse Mutation Assay (“Ames Test”) was performed to evaluate the mutagenic potential of a LATS inhibitor by its effects on one or more histidine-requiring strains of Salmonella typhimurium (TA98 and TA100.) in the absence and presence of a liver metabolizing system.
The 6-well plate Ames test is a miniaturized screening version of the original test using smaller volumes and test item amounts, see e.g. P.A. Escobar et al. (2013), Mut. Res. 752, 99-118. The highest concentration of 500 µg/well used in this 6-well Ames screen corresponds to about the top concentration of […] in the standard Ames test. Liver S-9 mix from male rats induced with Aroclor 1254 was added as a 5% S-9 mix to the test system. […] Standard vehicle used was DMSO.
The test article was regarded positive in this assay if this criterion is met, otherwise it was regarded as negative.

Where [3] appears, read: +S-9, 3+27 hours, 337.0 µg/mL (approximately 1 mM).
Setting [4] is: +S-9, any concentration up to 337.0 µg/mL.
Setting [5] is: -S-9, any concentration up to 40.00 µg/mL.

Entries after “also recorded” stand apart in the source; their conditions may differ.

Consider `CN(C)CCC(C)(C)Nc1nc(-c2ccncc2)nc2cnccc12` [Example 5, Dimethyl(3-methyl-3-{[2-(pyridin-4-yl)pyrido[3,4-d]pyrimidin-4-yl]amino}butyl)amine], for which the “Conclusion TK6 MNT screen result” value in data set [1] (listed as dimethyl(3-methyl-3-{[2-(pyridin-4-yl)pyrido[3,4-d]pyrimid in-4-yl]amino}butyl)a) is given as ““negative””; in data set [1] (listed as dimethyl(3-methyl-3-{[2-(pyridin-4-yl)pyrido[3,4-d]pyrimidin-4-yl]amino}butyl)am), “did not induce micronuclei”. The cytotoxicity in data set [1] (setting [3]) is on record as 39%; in data set [1] (-S-9, 30 hours, 40.00 µg/mL) it was 58%. Also, the “increases in micronucleated mononucleate (MNMON) cells” value in data set [1] (setting [4]) and in data set [1] (setting [5]) was “No statistically significant (p≤0.05) increases” in each case. In addition, the AMES screen result in data set [2] is “did not show evidence of a mutagenic potential; also recorded: “negative””.

Take `Cc1n[nH]cc1-c1nc(NC(C)(C)CCN(C)C)c2ccncc2n1` [Example 6, N^1,N^1,3-trimethyl-N^3-(2-(3-methyl-1H-pyrazol-4-yl)pyrido[3,4-d]pyrimidin-4-yl)butane-1,3-diamine]: the “Conclusion TK6 MNT screen result” value in data set [1] was “did not induce micronuclei; also recorded: “negative””. Further, the cytotoxicity is 33% in data set [1] (setting [3]) and 57% in data set [1] (-S-9, 30 hours, 40.00 µg/mL). Moreover, the “increases in micronucleated mononucleate (MNMON) cells” value in data set [1] (setting [4]) and in data set [1] (setting [5]) was “No statistically significant (p≤0.05) increases” each time. In addition, in data set [2], the AMES screen result is “did not show evidence of a mutagenic potential; also recorded: “negative””.

For the origin of these results see patent US20230348852A1, “METHODS AND COMPOSITIONS FOR OCULAR CELL THERAPY” (NOVARTIS AG, priority 2020, published 2023).
